Reference: patent US11352391B2, “Compositions for inducing urinary voiding and defecation” (Dignify Therapeutics, LLC, priority 2017, dated 2022)
Where a SMILES comes first, the peptide text is derived from it.

Key:
[1] = Pharmacokinetics in rat plasma after cassette IV bolus dosing; conditions: Sprague-Dawley, in vivo, iv
Method: The concentrations of compounds (SEQ ID NOS: 1-11) were measured in rat plasma after intravenous (IV) bolus dosing to determine pharmacokinetic profiles of individual compounds.
Animal preparation: In vivo studies were performed in anesthetized adult Sprague Dawley rats. Rats were anesthetized with urethane (1.2-1.4 g/kg subcutaneous injection). Surgical procedures were then performed with the addition of isoflurane anesthesia (0.05-1.5% in 02) as needed. A venous cannula was inserted into the jugular vein for intravenous (IV) administration of compounds.
In vivo dosing and plasma sampling: Compounds were divided into two groups (soluble and insoluble). Each group was dosed as a cassette in which four compounds (100 μg/kg each compound) were combined into a single IV bolus injection to anesthetized adult Sprague-Dawley rats. Soluble compounds were dissolved in saline. Insoluble compounds were dissolved in a 10% ethanol/saline solution. Rats were cassette dosed based on weight using 0.1 mg/mL solutions of individual compounds. Blood samples (700 μL) were collected using a carotid artery cannula into EDTA tubes containing ascorbic acid (final concentration 1%), and plasma was isolated.
Bioanalytical assay: A reversed-phase HPLC with Turbo Ion Spray MS/MS detection method was developed for bioanalysis. Mass spec transition and settings were individually optimized for each compound and then compounds were cassetted for HPLC method development and optimization. [^13C9; ^15N] [Lys5,MeLeu9,Nle10]-NKA(4-10) was used as an internal standard (IS). Analyte-to-IS peak area ratios for individual compounds were used to create linear calibration curves (1-20 ng/mL) using 1/×2 weighted least-squares regression analysis for evaluation of method linearity, precision and accuracy. For plasma concentration measurements, plasma samples were spiked with IS, processed by extraction, and analyzed using LC-MS/MS. Positive (M+H)+ ions for individual compounds and IS were monitored in MRM mode.

[2] = target: T1, human NK2 Receptor (hNK2R) (Homo sapiens, UniProt P21452); test: [125I]-NKA radioligand competition binding to human recombinant NK2Rs (CHO-hNK2 membranes)
T1 sequence (P21452 1-398): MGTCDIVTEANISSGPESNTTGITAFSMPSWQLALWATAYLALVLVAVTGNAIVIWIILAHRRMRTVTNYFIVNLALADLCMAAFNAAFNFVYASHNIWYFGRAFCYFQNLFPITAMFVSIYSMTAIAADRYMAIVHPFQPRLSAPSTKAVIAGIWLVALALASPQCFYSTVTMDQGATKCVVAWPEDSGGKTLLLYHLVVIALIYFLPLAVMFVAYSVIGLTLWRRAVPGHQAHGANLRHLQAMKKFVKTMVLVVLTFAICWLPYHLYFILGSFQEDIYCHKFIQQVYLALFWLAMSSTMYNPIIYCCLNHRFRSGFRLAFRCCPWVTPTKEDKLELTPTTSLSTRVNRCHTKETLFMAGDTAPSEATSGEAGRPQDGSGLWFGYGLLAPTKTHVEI
Method: (§1) After removal of the supernatant the cell pellet was washed and collected by re-suspension in PBS and centrifugation.
(§2) Frozen pellets were thawed and homogenized in 10 volumes (w/v) of membrane preparation buffer (50 mM HEPES pH 7.4, 1 mM EDTA, 50 μg/mL bacitracin and protease inhibitors) using a Polytron Ultraturrax (twice for 15 s per cycle). […] Protein concentration was determined using BioRad Protein Assay (Milan, Italy) with a BSA standard curve.

anesthetized dog = test: Colorectal pressure manometry in anesthetized dog; format: in vivo
Method: Animal preparation: Naïve beagle dogs were fasted for 12-24 hours and received a warm water enema the night prior to, and the morning of, the experiment to clear the rectum and lower colon of feces. The day of the experiment, a 20 gauge IV catheter (Terumo Surflo) was placed in the cephalic vein for anesthetic induction (propofol, 10 mg/kg; IV) and delivery of IV fluids (5-10 ml/kg/hr) and compounds. The sedated dog was intubated with a 5-6 Fr tracheal tube and was maintained on 2-3% isoflurane via a ventilator (15-25 breaths/min; tidal volume […]) for the remainder of the experiment.
Bowel contractility: For colorectal pressure manometry, an ˜3 inch balloon catheter was inserted into the rectum and secured to the tail with tape. This catheter was connected via a three-way stopcock to a pressure transducer (UTAH MEDICAL PRODUCTS; DelTran II) for pressure recording. Data were recorded using PowerLab/8SP acquisition system using LabChart software (version 7.3.7; ADINSTRUMENTS, Australia). Arterial pressure, ECG, temperature and blood oxygen saturation (spO2) were monitored throughout the experiment (MEDTRONIC LIFEPAK12). Dogs were recovered in a quiet room under veterinary supervision.

[3] = Saline solubility of heptapeptides; format: physicochemical
Method: Heptapeptides A-K shown below in Table 1 (SEQ ID NOs: 1-11) were synthesized according to standard Fmoc-mediated solid-phase techniques and purified under typical C18 reverse-phase conditions.
Compounds D-K were considered to be insoluble in saline (<1 mg/mL).

[4] = target: human NK1 Receptor (hNK1R) (Homo sapiens, UniProt P25103); test: [3H]-septide radioligand competition binding to human recombinant NK1Rs (CHO-hNK1 membranes); conditions: displacement of 5.0 nM [3H]-septide, CHO-hNK1 membranes; read-out: hNK1 binding Ki
Method: as §1, §2

Sequence of human NK1 Receptor (hNK1R) (P25103 whole entry): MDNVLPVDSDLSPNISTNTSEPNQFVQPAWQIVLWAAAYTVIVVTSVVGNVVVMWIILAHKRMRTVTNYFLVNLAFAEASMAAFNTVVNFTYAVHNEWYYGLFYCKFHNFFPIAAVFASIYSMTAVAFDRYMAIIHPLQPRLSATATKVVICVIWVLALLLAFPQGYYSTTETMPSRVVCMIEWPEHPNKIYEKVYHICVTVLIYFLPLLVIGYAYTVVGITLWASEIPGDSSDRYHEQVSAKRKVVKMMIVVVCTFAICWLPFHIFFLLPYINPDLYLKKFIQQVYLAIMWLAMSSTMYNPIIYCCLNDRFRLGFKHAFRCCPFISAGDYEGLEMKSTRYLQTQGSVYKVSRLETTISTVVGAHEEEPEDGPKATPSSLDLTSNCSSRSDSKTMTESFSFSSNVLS

CCCC[C@H](NC(=O)[C@H](CC(C)C)N(C)C(=O)CNC(=O)[C@@H](NC(=O)[C@H](Cc1ccccc1)NC(=O)[C@H](CCCNC(=N)N)NC(=O)[C@@H](N)CC(=O)O)C(C)C)C(N)=O [Compound B, Asp-Arg-Phe-Val-Gly-(NMe-Leu)-Nle-NH2] (HELM PEPTIDE1{D.R.F.V.G.[meL].[Nle].[am]}$$$$V2.0; N-terminus assumed)
half-life [1]: 0.2 to 1.2 min | level at 10 min ([1]; 100 ug/kg): < 1 ng/mL | Ki ([2]; displacement of 0.1 nM [125I]-NKA, CHO-hNK2 membranes, read-out: hNK2 binding Ki): 0.59 nM | hNK2 selectivity ratio ([2]; ratio of Kis hNK1R/hNK2R): 557.83 | duration of colorectal pressure response (anesthetized dog; IV bolus (B and E 3 μg/kg; G 3, 30 and 66 ug/kg)): approximately 7 minutes | duration of colorectal pressure response (anesthetized dog; SC 30 μg/kg): over 30 minutes | onset of increase in colorectal pressure (anesthetized dog; both IV bolus 3 μg/kg and SC 30 μg/kg): ≤ 3 min | solubility [3]: > 20 mg/mL | Ki [4]: 331 nM
